Columns and labels:
Plasma kallikrein = Plasma kallikrein (Homo sapiens, UniProt P03952); experiment: Inhibitory activity of compound against human plasma Kallikrein (PK); format: cell-free
Kallikrein-1 = Kallikrein-1 (Homo sapiens, UniProt P06870); experiment: Inhibitory activity of compound against Tissue Kallikrein (TK)
Kallikrein-1, sequence (P06870 whole entry): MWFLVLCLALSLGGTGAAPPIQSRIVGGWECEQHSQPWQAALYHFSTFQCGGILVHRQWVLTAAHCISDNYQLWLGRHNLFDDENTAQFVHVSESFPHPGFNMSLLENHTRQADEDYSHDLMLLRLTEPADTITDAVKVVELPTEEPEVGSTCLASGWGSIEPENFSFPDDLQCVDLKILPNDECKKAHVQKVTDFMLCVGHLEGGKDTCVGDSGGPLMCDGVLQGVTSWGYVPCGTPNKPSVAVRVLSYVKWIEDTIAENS

Plasma kallikrein, sequence (P03952 20-390 limits assumed): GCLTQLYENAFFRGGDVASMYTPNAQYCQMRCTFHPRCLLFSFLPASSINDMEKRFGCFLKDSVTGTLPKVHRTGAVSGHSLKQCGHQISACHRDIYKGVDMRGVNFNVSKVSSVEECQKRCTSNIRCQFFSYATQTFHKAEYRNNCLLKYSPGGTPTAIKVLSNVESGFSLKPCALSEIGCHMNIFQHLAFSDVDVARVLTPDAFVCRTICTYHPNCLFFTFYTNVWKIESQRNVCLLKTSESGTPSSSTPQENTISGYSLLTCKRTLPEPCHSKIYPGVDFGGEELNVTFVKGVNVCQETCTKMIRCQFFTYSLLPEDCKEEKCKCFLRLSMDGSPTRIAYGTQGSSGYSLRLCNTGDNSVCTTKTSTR
Plasma kallikrein, sequence (P03952 391-638 limits assumed): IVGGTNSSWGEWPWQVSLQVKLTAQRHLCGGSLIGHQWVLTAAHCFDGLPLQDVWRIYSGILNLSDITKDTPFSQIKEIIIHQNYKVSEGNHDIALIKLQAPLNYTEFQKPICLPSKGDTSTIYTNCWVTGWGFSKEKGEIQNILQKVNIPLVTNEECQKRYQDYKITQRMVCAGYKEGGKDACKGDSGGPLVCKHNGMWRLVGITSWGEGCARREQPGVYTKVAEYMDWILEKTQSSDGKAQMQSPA

`CC(C)(C)[C@@H](NC(=O)OC12CC3CC(CC(C3)C1)C2)C(=O)N[C@@H](Cc1ccccc1)C(=O)NC(Cc1ccc(NC(=N)N)cc1)C(=O)C(F)(F)F` (some centres undefined) gave a Ki (Plasma kallikrein) of 0.002 µM and a Ki (Kallikrein-1) of 47.3 µM.

For `CC(C)(C)[C@@H](NC(=O)N1CCOCC1)C(=O)N[C@@H](Cc1ccccc1)C(=O)NC(Cc1ccc(NC(=N)N)cc1)C(=O)C(F)(F)F` (some centres undefined), the Ki (Plasma kallikrein) was 0.028 µM and the Ki (Kallikrein-1) was greater than 2500 µM.

`N=C(N)Nc1ccc(CC(NC(=O)[C@H](Cc2ccccc2)NC(=O)[C@@H](CCc2ccccc2)NC(=O)OC23CC4CC(CC(C4)C2)C3)C(=O)C(F)(F)F)cc1` (some centres undefined) was tested, and the Ki (Plasma kallikrein) was 0.004 µM and the Ki (Kallikrein-1) was 7 µM.

`CC(C)(C)[C@@H](NC(=O)OC12CC3CC(CC(C3)C1)C2)C(=O)N[C@H](C(=O)NC(Cc1ccc(NC(=N)N)cc1)C(=O)C(F)(F)F)c1ccc2ccccc2c1` (some centres undefined) gave a Ki (Plasma kallikrein) of 0.5 µM and a Ki (Kallikrein-1) greater than 50 µM.

In the case of `CC(C)[C@@H](NC(=O)OC12CC3CC(CC(C3)C1)C2)C(=O)N[C@@H](Cc1ccccc1)C(=O)NC(Cc1ccc(NC(=N)N)cc1)C(=O)C(F)(F)F` (some centres undefined), the Ki (Plasma kallikrein) is reported as 0.005 µM and the Ki (Kallikrein-1) is reported as 191 µM.

Work on `CC(C)(C)[C@@H](NC(=O)N1CCOCC1)C(=O)NCC(=O)NC(Cc1ccc(NC(=N)N)cc1)C(=O)C(F)(F)F` (some centres undefined) yielded a Ki (Plasma kallikrein) of 15.5 µM and a Ki (Kallikrein-1) greater than 150 µM.

For `CC(C)(C)OC(=O)N[C@H](Cc1ccccc1)C(=O)N[C@H](C(=O)NC(Cc1ccc(NC(=N)N)cc1)C(=O)C(F)(F)F)c1ccc2ccccc2c1` (some centres undefined), the Ki (Plasma kallikrein) was 0.089 µM and the Ki (Kallikrein-1) was 223 µM.

— ChEMBL document CHEMBL1131912, “Synthesis of potent and selective inhibitors of human plasma kallikrein” (Bioorg Med Chem Lett, 1999)
